# Laboratory results from US11446342B2, “Composite probiotics and use thereof” (INFINITUS (CHINA) COMPANY LTD., priority 2019, dated 2022).
# What was measured:
# [1] = test system: mice having high-fat diet induced metabolic syndrome; assay: Liver glutathione (GSH) in high-fat diet-induced metabolic syndrome; assay type: in vivo, C57BL/6J mice; conditions: intragastric daily, high-fat feed; probiotics total 1.0×10^9 CFU/mL
# Procedure: (§1) The experimental animals were 48 5-week old SPF grade C57BL/6 male mice, which were purchased from Shanghai Slack Laboratory Animal Center. The high-fat feed was purchased from Nantong Trophic Animal Feed High-tech Co., Ltd. The model group was fed with TP23300 high-fat feed, and the normal control group was fed with TP23302 control feed. After the mice were adaptively feed for 7 days, the experiment started. The animals were given free access to food and water, the temperature was 22±2° C., the humidity was 55±5%, and the illumination was alternately 12 h bright and dark.
# (§2) Each group contains 6 mice. The feeding environmental temperature was 20-26° C., the humidity was 40%-70% and the padding was replaced twice a week. In the Bifidobacterium adolescentis CCFM8630, Lactobacillus reuteri CCFM8631, Lactobacillus rhamnosus CCFM1044 and Lactobacillus casei CCFM711 compounding group, the ratio of viable count of Bifidobacterium adolescentis CCFM8630, Lactobacillus reuteri CCFM8631, Lactobacillus rhamnosus CCFM1044 and Lactobacillus casei CCFM711 was 1:1:1:1. Each mouse was administered intragastrically each day with probiotics with a concentration of 1.0×10^9 CFU/mL, which was resuspended in 3% sucrose solution, and the volume by intragastric administration was 0.2 mL, i.e., the total amount of probiotics administered intragastrically to each mouse was 2×10^8 CFU each day. […]
# [2] = test system: mice having high-fat diet induced metabolic syndrome; assay: Liver superoxide dismutase (SOD) in high-fat diet-induced metabolic syndrome; assay type: in vivo, C57BL/6J mice; conditions: intragastric daily, high-fat feed; probiotics total 1.0×10^9 CFU/mL
# Procedure: as §1, §2
smiles,measurement,setting,value
"CN(CCOc1ccc(CC2SC(=O)NC2=O)cc1)c1ccccn1 (centres unmarked) [RH, rosiglitazone]",extent of increase of liver GSH level compared with the HF group,[1],6.88 μmoL/g prot
same,extent of increase of liver SOD activity compared with the HF group,[2],70.07 U/mg prot
